US11318151B2, “Compound pharmaceutical composition for treating skin inflammatory diseases” (Hefei Industrial Pharmaceutical Institute Co., Ltd., priority 2018, dated 2022)

How the values were obtained:
[1] = test system: Phorbol Ester-Induced Mouse Ear Swelling Model; assay: Phorbol ester-induced mouse ear swelling model; assay type: in vivo, SPF ICR mice; conditions: 6 h after modeling; for Right ear (ear thickness): phorbol ester 5 μg/20 μL/ear, drug 20 μL/ear 30 min before and 15 min after modeling, thickness gauge; for Swelling degree: right minus left ear thickness, drug 20 μL/ear in DMSO 30 min before and 15 min after modeling; for Inhibition rate of the swelling: vs. model group, ear thickness
Protocol: 1. Therapeutic Effects of the Compound Pharmaceutical Composition of the Disclosure on a Phorbol Ester-Induced Mouse Ear Swelling Model
SPF ICR mice, male, 18-22 g, randomly divided into compound groups with different compound ratios and a model group according to body weight, 10 mice for each group. The test drug is dissolved in a 20 μL solvent of DMSO. The specific group numbers are as follows:
(1) Compound groups with different compound ratios
Tofacitinib:crisaborole=2 mg:2 mg/20 μL (dose ratio=1:1; group a); tofacitinib:crisaborole=2 mg:1 mg/20 μL (dose ratio=2:1; group b); tofacitinib:crisaborole=2 mg:0.5 mg/20 μL (dose ratio=4:1; group c); tofacitinib:crisaborole=2 mg:0.25 mg/20 μL (dose ratio=8:1; group d); tofacitinib:crisaborole=2 mg:0.2 mg/20 μL (dose ratio=10:1; group e); tofacitinib:crisaborole=2 mg:0.125 mg/20 μL (dose ratio=16:1; group f); tofacitinib:crisaborole=1 mg: 2 mg/20 μL (dose ratio=1:2; group g); tofacitinib:crisaborole=0.5 mg:2 mg/20 μL (dose ratio=1:4; group h); tofacitinib:crisaborole=0.25 mg:2 mg/20 μL (dose ratio=1:8; group i); tofacitinib:crisaborole=0.2 mg:2 mg/20 μL (dose ratio=1:10; group j); tofacitinib:crisaborole=0.125 mg:2 mg/20 μL (dose ratio=1:16; group k). (2) Model Group (3) Crisaborole (4 mg/20 ul) (4) Tofacitinib (4 mg/20 ul) (5) Blank group: applying with 20 μL DMSO as a solvent for comparison. Experimental Method:
For the mice of each group, 20 ul (5 μg/20 μL/ear) of phorbol ester is applied to the front and back of the right ear for modeling, and 20 μL solvent medium (acetone) is applied to the left ear; except for the model group, the right ears of the mice in each administration group are applied with corresponding drugs 20 μL/ear 30 minutes before and 15 minutes after modeling, respectively. 6 h after modeling, the ear swelling is measured with a thickness gauge as an indicator of inflammation; then, the animals are sacrificed, the ears are cut and punched with a 6 mm punch, the ear pieces are weighed, and the swelling degree (weight) is calculated.

atopic dermatitis = conditions: topical 2% tofacitinib, clinical phase II; cited from earlier work

SMILES	Right ear (ear thickness) [1]	Swelling degree [1]	Inhibition rate of the swelling [1] [%]	itching symptoms in patients (atopic dermatitis)	therapeutic effect on atopic dermatitis (atopic dermatitis)
N#Cc1ccc(Oc2ccc3c(c2)COB3O)cc1 [Crisaborole, crisaborole]	43.0 ± 3.7 10^−2 mm	13.3 ± 3.4^Δ 10^−2 mm	30.0	–	–
C[C@@H]1CCN(C(=O)CC#N)C[C@@H]1N(C)c1ncnc2[nH]ccc12 [Tofacitinib, tofacitinib]	41.6 ± 3.4 10^−2 mm	12.4 ± 3.2^ΔΔ 10^−2 mm	34.7	can improve itching symptoms in patients	a certain therapeutic effect on atopic dermatitis
